Assay [1] deals with FLO-1. Kind of assay: Antiproliferative activity against human FLO-1 cells assessed as reduction in cell viability at 0.003 to 30 uM measured after 5 days by PrestoBlue reagent based fluorescence analysis. Type of assay: functional. To be noted: dose 0.003-30 µM, time 5.0 day.
Assay [2] deals with OE33. Briefly: Antiproliferative activity against human OE33 cells assessed as reduction in cell viability at 0.003 to 30 uM measured after 5 days by PrestoBlue reagent based fluorescence analysis. The class given is functional. The following applies: dose 0.003-30 µM, time 5.0 day.
Assay [3] can be described thus: cells. To be noted: Homo sapiens, FLO-1, 120 h.
Description: Antiproliferative activity against human FLO-1 cells assessed as reduction in cell viability measured after 5 days by PrestoBlue reagent based fluorescence analysis
Assay [4] relates to OE33. Kind of assay: cells. To be noted: Homo sapiens, OE33, 120 h.
Description: Antiproliferative activity against human OE33 cells assessed as reduction in cell viability measured after 5 days by PrestoBlue reagent based fluorescence analysis
The target of assay [5] is T1, Aurora kinase A (Homo sapiens, UniProt O14965).
T1 sequence (O14965 whole entry): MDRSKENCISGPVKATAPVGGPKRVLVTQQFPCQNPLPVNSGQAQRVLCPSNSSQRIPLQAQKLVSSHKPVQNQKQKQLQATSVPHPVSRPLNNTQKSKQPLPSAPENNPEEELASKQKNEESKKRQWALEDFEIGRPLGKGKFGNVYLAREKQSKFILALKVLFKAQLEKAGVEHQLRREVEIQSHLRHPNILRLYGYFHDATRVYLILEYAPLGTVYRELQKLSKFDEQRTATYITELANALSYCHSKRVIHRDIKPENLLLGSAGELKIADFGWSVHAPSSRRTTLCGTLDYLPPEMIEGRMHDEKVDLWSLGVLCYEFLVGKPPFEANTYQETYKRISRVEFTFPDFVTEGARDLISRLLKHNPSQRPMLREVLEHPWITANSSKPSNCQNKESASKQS
Kind of assay: Inhibition of recombinant AuroraA (unknown origin).

The test system of assay [6] is SKGT4. Briefly: Antiproliferative activity against human SKGT4 cells assessed as reduction in cell viability at 0.003 to 30 uM measured after 5 days by PrestoBlue reagent based fluorescence analysis. The class given is functional. To be noted: dose 0.003-30 µM, time 5.0 day.
The subject of assay [7] is OACp4C. Briefly: Antiproliferative activity against human OACp4C cells assessed as reduction in cell viability at 0.003 to 30 uM measured after 5 days by PrestoBlue reagent based fluorescence analysis. The class given is functional. To be noted: dose 0.003-30 µM, time 5.0 day.
The test system of assay [8] is EPC-2. Kind of assay: Antiproliferative activity against human EPC-2 cells assessed as reduction in cell viability at 0.003 to 30 uM measured after 5 days by PrestoBlue reagent based fluorescence analysis. Type of assay: functional. The following applies: dose 0.003-30 µM, time 5.0 day.
The test system of assay [9] is CP-A. Briefly: Antiproliferative activity against human CP-A cells assessed as reduction in cell viability at 0.003 to 30 uM measured after 5 days by PrestoBlue reagent based fluorescence analysis. Type of assay: functional. The following applies: dose 0.003-30 µM, time 5.0 day.
Assay [10] has as its system JH-EsoAd1. Kind of assay: Antiproliferative activity against human JH-EsoAd1 cells assessed as reduction in cell viability at 0.003 to 30 uM measured after 5 days by PrestoBlue reagent based fluorescence analysis. Type of assay: functional. To be noted: dose 0.003-30 µM, time 5.0 day.
Assay [11] in a line: cells. To be noted: Homo sapiens, MFD-1, 120 h.
Description: Antiproliferative activity against human MFD-1 cells assessed as reduction in cell viability measured after 5 days by PrestoBlue reagent based fluorescence analysis
Assay [12] can be described thus: cells. To be noted: Homo sapiens, SKGT4, 120 h.
Description: Antiproliferative activity against human SKGT4 cells assessed as reduction in cell viability measured after 5 days by PrestoBlue reagent based fluorescence analysis
In assay [13] the test system is MFD-1. Briefly: Antiproliferative activity against human MFD-1 cells assessed as reduction in cell viability at 0.003 to 30 uM measured after 5 days by PrestoBlue reagent based fluorescence analysis. The class given is functional. The following applies: dose 0.003-30 µM, time 5.0 day.

Molecules are shown by their SMILES. The source made the active and inactive calls. No cut-off for these calls is given here.

Turning to `CNc1ncc2c(/C=C/C(=O)N3CCCCC3)nn(CC3CCCC3)c2n1`, the outcome in assay [1] was Active.

In the case of `CNc1ncc2c(/C=C/C(=O)N3CCC(OC)CC3)nn(Cc3ccc(OC)cc3)c2n1`, the Activity result in assay [1] and in assay [2] was “Active; Partial Restoration Of Antiproliferative Activity Observed” each time.

With `CNc1ncc2c(/C=C/C(=O)N3CCC(O)CC3)nn(CC3CCCC3)c2n1`, in [1], the outcome was Active.

In the case of `CNc1ncc2c(/C=C/C(=O)N3CCOCC3)nn(CC3CCCC3)c2n1`, the outcome in [1] was Active.

What is called EC50 is the concentration at which the effect is half-maximal. Read a low EC50 as higher potency in that assay. With `CNc1ncc2c(/C=C/C(=O)N3CCC(OC)CC3)nn(CC3CCCC3)c2n1`, the result in assay [1] was Active. For the same molecule, the EC50 in assay [3] and in [4] was below 9000 nM throughout.

With `CNc1ncc2c(/C=C/C(=O)N3CCCC(OC)C3)nn(Cc3cccc(C)c3)c2n1` (stereo not given), the result in assay [1] and in [2] was inactive.

For the molecule `CNc1ncc2c(/C=C/C(=O)N3CCC(c4ccccc4)CC3)nn(CC3CCCC3)c2n1`, in [1], the outcome was Active.

`Nc1ncnc2c1c(/C=C/C(=O)N1CCC(O)CC1)nn2CC1CCCC1`: the outcome in [1] and in assay [2] was inactive.

In the case of `CN(C)C1CCCN(C(=O)/C=C/c2nn(CC3CCCC3)c3ncnc(N)c23)C1` (stereo not given), the result in assay [1] and in assay [2] was inactive.

Take `CNc1ncc2c(/C=C/C(=O)N3CCC(CCO)CC3)nn(CC3CCCC3)c2n1`: the result in assay [1] was Active.

Take `CNc1ncc2c(/C=C/C(=O)N3CCC(OC)CC3)nn(CC3CCCO3)c2n1` (stereo not given): the result in [1] and in assay [2] was inactive.

`CNc1ncc2c(/C=C/C(=O)N3CCC(OC)CC3)nn(CC3OCCO3)c2n1`: the outcome in assay [1] and in [2] was inactive.

On to `COC(=O)/C=C/c1nn(CC2CCCC2)c2ncnc(N)c12`, for which the result in assay [1] and in [2] was inactive.

As for `CNc1ncc2c(/C=C/C(=O)N3CCC(OC)CC3)nn(Cc3ccccc3OC)c2n1`, the result in assay [1] and in assay [2] was inactive.

`CNc1ncc2c(/C=C/C(=O)N3CCC(N(C)C)CC3)nn(CC3CCCC3)c2n1`: in assay [1], the outcome was Active.

As to `Nc1ncnc2c1c(/C=C/C(=O)N1CCC(CCO)CC1)nn2CC1CCCC1`, the outcome in assay [1] and in [2] was inactive.

As to `CNc1ncc2c(/C=C/C(=O)N3CCC(OC)CC3)nn(Cc3ccc(C)cc3)c2n1`, the Activity result in assay [1] and in assay [2] was “Active; Partial Restoration Of Antiproliferative Activity Observed” each time.

As to `CNc1ncc2c(/C=C/C(=O)N3CCC4(CC3)OCCO4)nn(Cc3cccc(C)c3)c2n1`, the result in assay [1] and in assay [2] was Active. In addition, the EC50 is 1240 nM in assay [3] and 830 nM in [4].

`Nc1ncnc2c1c(/C=C/C(=O)N1CCOCC1)nn2CC1CCCC1`: the result in assay [1] and in assay [2] was inactive.

With `CCOC(Cn1nc(/C=C/C(=O)N2CCC(OC)CC2)c2cnc(NC)nc21)OCC`, the outcome in assay [1] and in [2] was inactive.

Turning to `CNc1ncc2c(/C=C/C(=O)N3CCC(OC)CC3)nn(Cc3ccccc3C)c2n1`, the result in assay [1] and in [2] was inactive.

Regarding `CN(C)C1CCN(C(=O)/C=C/c2nn(CC3CCCC3)c3ncnc(N)c23)CC1`, the result in assay [1] and in assay [2] was inactive.

With `CNc1ncc2c(/C=C/C(=O)N3CCC(OC)CC3)nn(Cc3cccc(OC)c3)c2n1`, the result in assay [1] and in assay [2] was Active.

Take `CNc1ncc2c(/C=C/C(=O)N3CCC(OC)CC3)nn(Cc3ccc(C(F)(F)F)cc3)c2n1`: the Activity entry in assay [1] and in assay [2] was “Active; Partial Restoration Of Antiproliferative Activity Observed” in each case.

For `CNc1ncc2c(/C=C/C(=O)N3CCC(C)CC3)nn(CC3CCCC3)c2n1`, in assay [1], the outcome was Active.

Regarding `CC1CCN(C(=O)/C=C/c2nn(CC3CCCC3)c3ncnc(N)c23)CC1`, the result in assay [1] and in [2] was inactive.

With `Nc1ncnc2c1c(/C=C/C(=O)N1CCCCC1)nn2CC1CCCC1`, the result in assay [1] and in assay [2] was inactive.

`CNc1ncc2c(/C=C/C(=O)N3CCC(COC)CC3)nn(Cc3cccc(C)c3)c2n1`: the result in assay [1] and in [2] was inactive.

For the molecule `CNc1ncc2c(/C=C/C(=O)N3CCC(OC)CC3)nn(Cc3ccccc3C(F)(F)F)c2n1`, the result in assay [1] and in [2] was inactive.

Turning to `CNc1ncc2c(/C=C/C(=O)N3CCC(OC)CC3)nn(CC(C)(C)C)c2n1`, the outcome in assay [1] and in assay [2] was inactive.

`Nc1ncnc2c1c(/C=C/C(=O)N1CCC(c3ccccc3)CC1)nn2CC1CCCC1`: the EC50 in [3] and in assay [4] was around 30000 nM in each case.

On to `COC1CCN(C(=O)/C=C/c2nn(CC3CCCC3)c3ncnc(N)c23)CC1`, for which the result in assay [1] and in assay [2] was inactive.

As for `CNc1ncc2c(/C=C/C(=O)N3CCCC(N(C)C)C3)nn(CC3CCCC3)c2n1` (stereo not given), the result in assay [1] was Active.

For orientation: IC50 means the midpoint of a concentration-inhibition curve. `CNc1ncc2c(/C=C/C(=O)N3CCC(OC)CC3)nn(Cc3cccc(C(F)(F)F)c3)c2n1`: the IC50 in [5] was 1450 nM.

With `CNc1ncc2c(/C=C/C(=O)N3CCC(OC)CC3)nn(C(C)C)c2n1`, the result in assay [1] and in assay [2] was inactive.

Turning to `Nc1ncnc2c1c(/C=C/C(=O)O)nn2CC1CCCC1`, the outcome in assay [1] and in [2] was inactive.

As to `CNc1ncc2c(/C=C/C(=O)N3CCC(OC)CC3)nn(CCC(C)C)c2n1`, the outcome in assay [1] and in assay [2] was inactive.

`CNc1ncc2c(/C=C/C(=O)N3CCC(OC)CC3)nn(Cc3cccc(C)c3)c2n1`: the outcome in assay [1] and in [2] was Active. The EC50 turned out to be 2500 nM in assay [3] and 1800 nM in assay [4].

`CNc1ncc2c(/C=C/C(=O)N3CCC4(CC3)OCCO4)nn(Cc3cccc(C(F)(F)F)c3)c2n1`: the result in assay [6], in assay [7], in [8], in assay [9], in assay [10] and in assay [13] was Active. The EC50 in assay [3] is 700 nM; in assay [11], 920 nM; in assay [12], 2900 nM; in assay [4] it was 560 nM.

Take `CNc1ncc2c(/C=C/C(=O)O)nn(CC3CCCC3)c2n1`: the result in assay [1] and in assay [2] was inactive.

As to `Nc1ncnc2c1c(/C=C/C(=O)N1CCCC1)nn2CC1CCCC1`, the 50% effective concentration (EC50) in [3] and in [4] was around 30000 nM throughout.

Consider `CCOC1CCN(C(=O)/C=C/c2nn(Cc3cccc(C)c3)c3nc(NC)ncc23)CC1`, for which the outcome in [1] and in [2] was inactive.

For `CNc1ncc2c(/C=C/C(=O)N3CCC(OC)CC3)nn(CC(OC)OC)c2n1`, the result in [1] and in assay [2] was inactive.

Regarding `CNc1ncc2c(/C=C/C(=O)N3CCC(OC)CC3)nn(Cc3ccccc3)c2n1`, the outcome in [1] and in [2] was Active.

Consider `CNc1ncc2c(/C=C/C(=O)N3CCC(OC)CC3)nn(CC3CCCCC3)c2n1`, for which the result in assay [1] and in assay [2] was Active.

Turning to `CNc1ncc2c(/C=C/C(=O)N3CCCC3)nn(CC3CCCC3)c2n1`, the outcome in assay [1] was Active.

The record behind these values is ChEMBL document CHEMBL6134771, “Ligand-centred phenotype-driven development of potent kinase inhibitors against oesophageal cancer” (RSC Med Chem, 2025).
